According to patent US20250281424A1 (New York Blood Center, Inc, priority 2020, published 2025):
Like-named read-outs stand apart in the source and are kept apart here.

Tests used:
[1] = target: P450 2D6 (Homo sapiens, UniProt P10635); assay: P450 inhibition 2D6; assay type: in vitro ADME
Method: (§1) Certain exemplified compounds were examined for ADMET (absorption, distribution, metabolism, excretion and toxicity) profiling using conventional assays with the results shown in the Tables 3A-3C below.
(§2) Examples 1 and 3 were evaluated as inhibitors of the five P450s that are the source of most DDI issues. […] The tested compounds meet drug property criteria for IV administration.

[2] = target: T1, ultra large complexes (ULC) between PF4 tetramers and heparin (Homo sapiens, UniProt P02776); assay: Inhibition of formation of ultra large complexes (ULC) of PF4 tetramers and heparin; assay type: biochemical; conditions: for IC50: IC50 values are +/−20%
T1 construct: platelet factor 4 which is a 70 amino acid, lysine-rich, 7.8 kDa platelet-specific protein
T1 sequence (P02776 32-101): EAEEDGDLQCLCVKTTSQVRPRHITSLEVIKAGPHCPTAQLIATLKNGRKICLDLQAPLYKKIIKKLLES
Method: Since ULCs are formed as part of a dynamic equilibrium between heparin and PF4, dynamic light scattering (DLS) was performed to measure the ability of the exemplified compounds to disrupt preformed ULCs. Samples were analyzed and included PF4 incubated in the absence or presence of unfractionated heparin (UFH) for 20 min at room temperature at PF4 to heparin ratios (PHR) of 1:0 (no heparin), 2:1, and 0.64:1. The samples were then analyzed using photon correlation spectroscopy on a DynaPro® DLS instrument and Dynamics® software (V6.7.6; […]) to obtain correlation function. The results of the DLS analysis indicate the percentage of ULCs and small PF4 particles. Data for the small particles (a population of particles with a mean hydrodynamic diameter of about 1 nm) and data for the large particles (a population of particles with a mean hydrodynamic diameter of about 300 nm) is assessed. Data are expressed as the percent of total intensity from each measurement, the mean of 10 measurements, and representative of two such experiments.
ELISA measurement and gel filtration measurement of ULC inhibition were performed as described in International Patent Publication No. WO2013/142328, which is incorporated herein by reference. Similarly, assays in which heparin concentrations are varied to determine the effect on ULC inhibition were performed as described in that publication.
Certain compounds were evaluated for their ability to inhibit formation of ultra large complexes (ULC) between PF4 tetramers and heparin.

[3] = Cytotoxicity NIH3T3 (MTS reduction); assay type: cell-based; conditions: mouse, NIH3T3 cells, 1 hour exposure in the absence of serum, N = 3, read-out: Cytotox NIH3T3 EC50
[4] = Human microsome stability; assay type: in vitro ADME; conditions: for half-life at 0.5 μM / microsomal CLint at 0.5 μM: Human microsomes, compound conc = 0.5 μM, n = 1; for half-life at 0.5 μM: read-out: Human microsome stability Half life t1/2; for microsomal CLint at 0.5 μM: read-out: Human microsome stability Intrinsic Clearance Clint (ml/min/mg protein); for intrinsic clearance in human microsome assay / stability in human microsome assay: human microsomes
Description: as §1

[5] = target: T2, P450 1A2 (Homo sapiens, UniProt P05177); assay: P450 inhibition 1A2; assay type: in vitro ADME
T2 sequence (P05177 1-516): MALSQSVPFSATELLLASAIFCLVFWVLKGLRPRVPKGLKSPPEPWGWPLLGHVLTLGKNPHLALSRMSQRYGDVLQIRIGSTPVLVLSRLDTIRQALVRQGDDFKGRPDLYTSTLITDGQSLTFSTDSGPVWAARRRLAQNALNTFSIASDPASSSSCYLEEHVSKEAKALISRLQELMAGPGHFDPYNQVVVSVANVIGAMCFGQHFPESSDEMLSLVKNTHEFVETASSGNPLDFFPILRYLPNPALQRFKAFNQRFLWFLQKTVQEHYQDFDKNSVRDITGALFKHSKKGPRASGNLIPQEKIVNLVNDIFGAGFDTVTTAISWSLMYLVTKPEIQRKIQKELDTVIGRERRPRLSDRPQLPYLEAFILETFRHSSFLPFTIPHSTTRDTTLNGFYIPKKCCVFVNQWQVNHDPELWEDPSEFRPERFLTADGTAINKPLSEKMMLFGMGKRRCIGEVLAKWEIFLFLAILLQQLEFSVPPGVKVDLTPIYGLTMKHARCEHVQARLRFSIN
Method: as §1, §2

[6] = target: human Ether-à-go-go-Related Gene (hERG) (Homo sapiens, UniProt Q12809); assay: hERG patch clamp assay; assay type: in vitro ADME; conditions: for hERG inhibition: 30 μM concentration, patch clamp
Chain of human Ether-à-go-go-Related Gene (hERG) (Q12809 whole entry): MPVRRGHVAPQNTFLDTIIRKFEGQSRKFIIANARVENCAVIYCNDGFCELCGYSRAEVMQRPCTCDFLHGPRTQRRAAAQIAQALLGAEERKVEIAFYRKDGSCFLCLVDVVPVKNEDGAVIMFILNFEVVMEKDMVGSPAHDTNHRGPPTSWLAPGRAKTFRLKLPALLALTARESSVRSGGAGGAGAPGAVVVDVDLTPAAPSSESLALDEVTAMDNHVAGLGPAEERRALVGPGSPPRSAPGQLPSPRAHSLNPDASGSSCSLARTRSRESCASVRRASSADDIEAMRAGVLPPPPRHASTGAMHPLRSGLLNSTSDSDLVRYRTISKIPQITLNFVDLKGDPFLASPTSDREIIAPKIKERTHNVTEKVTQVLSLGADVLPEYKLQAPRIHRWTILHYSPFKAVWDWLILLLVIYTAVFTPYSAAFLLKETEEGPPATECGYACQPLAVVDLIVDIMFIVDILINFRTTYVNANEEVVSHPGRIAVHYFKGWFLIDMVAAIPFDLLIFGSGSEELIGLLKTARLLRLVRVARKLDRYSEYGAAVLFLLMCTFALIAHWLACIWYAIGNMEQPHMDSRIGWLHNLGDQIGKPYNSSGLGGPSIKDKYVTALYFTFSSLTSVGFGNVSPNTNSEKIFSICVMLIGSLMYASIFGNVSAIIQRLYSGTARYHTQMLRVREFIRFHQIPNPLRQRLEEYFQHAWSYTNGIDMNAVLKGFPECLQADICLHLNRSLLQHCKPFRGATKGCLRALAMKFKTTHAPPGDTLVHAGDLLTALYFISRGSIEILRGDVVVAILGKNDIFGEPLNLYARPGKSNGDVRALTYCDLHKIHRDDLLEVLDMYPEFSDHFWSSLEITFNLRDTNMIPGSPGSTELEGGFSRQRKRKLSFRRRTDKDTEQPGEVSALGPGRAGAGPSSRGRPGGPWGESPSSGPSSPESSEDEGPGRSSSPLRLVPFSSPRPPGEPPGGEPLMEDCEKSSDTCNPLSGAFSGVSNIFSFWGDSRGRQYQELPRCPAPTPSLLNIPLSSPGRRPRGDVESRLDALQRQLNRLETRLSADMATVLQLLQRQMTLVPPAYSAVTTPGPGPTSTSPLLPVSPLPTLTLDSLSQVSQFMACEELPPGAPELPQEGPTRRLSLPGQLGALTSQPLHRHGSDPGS
Method: as §1, §2

Chain of P450 2D6 (P10635 whole entry): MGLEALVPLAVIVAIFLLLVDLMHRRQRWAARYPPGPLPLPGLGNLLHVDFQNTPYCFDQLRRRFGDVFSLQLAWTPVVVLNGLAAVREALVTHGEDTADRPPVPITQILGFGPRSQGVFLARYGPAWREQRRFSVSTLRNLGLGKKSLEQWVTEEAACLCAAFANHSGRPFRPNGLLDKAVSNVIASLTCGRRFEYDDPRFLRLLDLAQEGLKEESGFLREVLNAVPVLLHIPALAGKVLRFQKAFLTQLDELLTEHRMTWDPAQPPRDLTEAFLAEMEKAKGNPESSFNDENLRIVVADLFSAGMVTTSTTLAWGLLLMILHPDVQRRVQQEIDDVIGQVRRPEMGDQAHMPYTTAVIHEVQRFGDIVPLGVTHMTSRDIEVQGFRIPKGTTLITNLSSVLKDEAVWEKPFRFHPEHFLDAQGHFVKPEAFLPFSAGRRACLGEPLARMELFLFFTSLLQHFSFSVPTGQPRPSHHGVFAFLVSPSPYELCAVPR

| Compound | IC50 [1] | inhibition of P450 2D6 [1] | IC50 [2] | EC50 at 1 h [3] | half-life at 0.5 μM [4] | microsomal CLint at 0.5 μM [4] | intrinsic clearance in human microsome assay [4] | stability in human microsome assay [4] | IC50 [5] | inhibition of P450 1A2 [5] | IC50 [6] | hERG inhibition [6] | IC50 ([1]; read-out: P450 Inhibition IC50 2D6) | inhibition of ULC formation ([2]; FIG. 6B) | IC50 ([6]; read-out: hERG IC50) |
| --- | --- | --- | --- | --- | --- | --- | --- | --- | --- | --- | --- | --- | --- | --- | --- |
| CC(=O)C1C(=O)c2ccc(C(=O)c3ccc4c(c3)C(=O)C(C(C)=O)C4=O)cc2C1=O (stereo not drawn) [Example 1, 5,5′-carbonylbis(2-acetyl-1h-indene-1,3(2h)-dione)] | > 100 µM | no inhibition | 8 µM | > 1000 µg/mL | 1.44 h | 15.8 mL/min/mg | low intrinsic clearance | excellent stability | 46.7 µM | moderate inhibition | > 30 µM | no significant inhibition | – | – | – |
| CCOC(=O)C1C(=O)c2ccc(C(=O)c3ccc4c(c3)C(=O)C(C(=O)OCC)C4=O)cc2C1=O (stereo not drawn) [Example 3, diethyl 5,5′-carbonylbis(1,3-dioxo-2,3-dihydro-1h-indene-2-carboxylate)] | – | no inhibition | 2 µM | > 500 µg/mL | > 2.42 h | < 9.5 mL/min/mg | low intrinsic clearance | excellent stability | > 100 µM | – | – | no significant inhibition | > 100 µM | dose-dependent inhibition | > 30 µM |
